Values quoted from earlier work, collected in patent publication US6635280B2, “Extending the duration of drug release within the stomach during the fed mode” (DepoMed, Inc., priority 1997, dated 2003).

Conditions: oral doses administered with or following a meal

For `Cc1c(O)cccc1C(=O)N[C@@H](CSc1ccccc1)[C@H](O)CN1C[C@H]2CCCC[C@H]2C[C@H]1C(=O)NC(C)(C)C` [nelfinavir], the “area under the plasma concentration-time curve, increase with or following a meal” value is given as “two-fold to three-fold” and the “peak plasma concentration, increase with or following a meal” value is given as “two-fold to three-fold”.
